Experimental findings from article PMC6273432, “Novel Selective Butyrylcholinesterase Inhibitors Incorporating Antioxidant Functionalities as Potential Bimodal Therapeutics for Alzheimer’s Disease” (Molecules, 2016) are described below.

The target of data set [1] is T1, BuChE purified from human plasma (Homo sapiens, UniProt P06276).
T1 construct: BuChE purified from human plasma; from tissue; host or cells: human plasma
The data set can be described thus: Ellman assay, BuChE inhibition. It is filed as biochemical. As to conditions: for Selectivity: IC50 AChE/IC50 BuChE, 100 µM used for AChE where % inhibition at 100 µM was <50%; for IC50: n = 3. The protocol: (§1) Inhibitory activities of the isosorbide-2-carbamates bearing a lipoate ester (7a–d), a ferulate ester (8a–d) ester or 5-unsubstituted compounds (6a–d) was measured using the standard Ellman spectrophotometric method using AChE from electric eel or BuChE purified from human plasma with acetylthiocholine or butyrylthiocholine as appropriate (Table 1). […] These values are in the potency range of clinically used cholinesterase inhibitors. […] In most cases, it was not possible to achieve a maximal inhibition of AChE because the solubility threshold was lower than the concentration required for maximal inhibition. In previous studies, we noticed that phenyl carbamates of isosorbide are relatively weak inhibitors of BuChE compared with the benzyl and alkyl carbamates, but that AChE is relatively tolerant of isosorbide phenyl carbamates. We published a paper showing that isosorbide-2,5-diaryl esters are moderately potent substrate-inhibitors of AChE [25]. […] The effect of (appropriate) 5-ester substitution in the series of isosorbide compounds already published is to increase potency by promoting affinity in the pre-carbamylation state, reducing the pseudo Michaelis constant for the carbamate substrate (referred to as Kc in carbamylation literature). When the intrinsic affinity of the substrate carbamate is higher, there is a relatively greater proportion of the unimolecular E. carbamate complex. In the present case, the anti-oxidant ester functionality directly contributes to potency by increasing substrate affinity. […] Indeed, ester hydrolysis at the isosorbide C-5, which is slow, would produce the ferulic acid or lipoic acid byproduct.
(§2) Cholinesterase activity was measured using the Ellman spectrophotometric method. HuBuChE activity was measured in replicate samples using a 96-well plate reader. The total volume of test solution in each well was 250 μL. This consisted of 25 μL of plasma solution, 150 μL of phosphate buffer pH 8.0, 25 μL of DTNB solution (0.5 mM), and 25 μL of acetonitrile:distilled water (1:1). The 96-well plate was incubated for 30 min before 25 μL of butyrylthiocholine iodide (BTCI) solution (0.5 mM) was added, and the reaction was measured at 405 nm over 5 min using an Anthos bt2 plate reader. For the determination of AChE activity, 25 μL of electric eel AChE solution and 25 μL of acetylthiocholine iodide (ATCI) solution were used instead of the plasma solution and BTCI solution. For determination of enzyme inhibition, 25 μL of an inhibitor solution was added to the test solution instead of the acetonitrile:water (1:1) solution. Inhibitors were added 30 min before determination of remaining enzyme activity. IC50 values were calculated using GraphPad Prism 4.02 software (GraphPad Software Inc., La Jolla, CA, USA).

The next data set has as its target T2, AChE from electric eel (Electrophorus electricus, UniProt O42275).
T2 construct: AChE from electric eel; from tissue
The data set can be described thus: Ellman assay, AChE inhibition. The class given is biochemical. The settings on record: for IC50: inhibitor added 30 min before; for inhibition at 100 µM: read-out: AChE %I at 100 μM. The protocol: as §1, §2

Data set [2] concerns HT-22 murine hippocampal cell line. The data set can be described thus: cells. The class given is cell-based. The settings on record: glutamate 5 mM. The protocol:
(§3) The neuroprotective properties of the compounds were assessed using the HT-22 murine hippocampal cell line. This is an immortalized cell line which has become widely used in recent years to study oxidative stress induced neuronal cell death. The cell line lacks ionotropic glutamate receptors but is sensitive to glutamate cytotoxicity via non-receptor mediated pathway(s) that are to a significant extent propagated by reactive oxygen species. The cell line appeared to be a good cellular model for measuring an anti-oxidant mediated neuroprotective in vitro effect of the compounds [26, 27, 28].
(§4) Test compounds in DMSO solution (0.1%) were added to HT-22 cell culture for (24 h), using four repeats in three independent experiments. […] Lipoic acid and ferulic acid were also non-toxic in the same concentration range. Next, the neuronal cell culture was treated with glutamate (5 mM) which caused about 90% cell death as reflected in the MTT assay. Quercetin served as positive control and caused rescue of cell death to around 80% cell viability at 25 µM. Cells were co-treated with test compounds 7a–d and 8a–d at 1, 5, 10 and 25 µM in four repeats and three independent experiments. Lipoic and ferulic acid were tested in parallel experiments in the same concentration range. Lipoic acid was active in the range 10–25 µM but ferulic acid was not active (data not shown). […] The reasons for this unexpected variation in efficacy is not clear but may be due to (intra)cellular access.
This test was performed as reported before. Briefly, HT-22 cells were seeded in 96-well plates at a density of 5 × 10^3 per well and cultured for 24 h. Subsequently, cells were incubated for another 24 h either with medium or test compounds with potential cytoprotective activity either in the absence (to test for toxic effects) or the presence (to test for the protective potential against glutamate induced oxidative stress) of 5 mM glutamate. MTT solution (4 mg/mL in PBS) was diluted 1:10 with medium and the mixture was added to the wells after removal of the previous medium. The plates were then incubated for another 3 h. Then, the supernatant was removed and 100 µL of lysis buffer (10% SDS, pH 4.1) were added to the wells. Absorbance at 560 nm was determined on the next day using a multiwell plate photometer (Spectra Fluor Plus, Tecan, Crailsheim, Germany). The results of these cell viability assays were expressed as percentages relative to untreated control cells. All compounds were dissolved in DMSO and diluted with fresh medium, with the DMSO concentration always below 0.1% (v/v).
Data of all MTT tests were expressed as means ± SD of at least three independent experiments (in quadruplicates). Data were subjected to one-way ANOVA followed by Dunnett’s multiple comparison post-test using GraphPad Prism 5 Software. (Levels of significance ** p < 0.01; *** p < 0.001).

Data set [3] is described as follows: Oxygen radical absorbance capacity (ORAC) assay. It is filed as physicochemical. As to conditions: for ORAC antioxidant capacity: TE = 1 equals trolox. The protocol: The antioxidant capacity of 7d and 8a was assessed directly using the oxygen radical absorbance capacity (ORAC) assay, in which the physicochemical ability of the test compounds to scavenge radicals and quench fluorescein […] is quantified and related to so-called trolox equivalents (TE = 1 represents the antioxidant equivalence to trolox, a water-soluble Vitamin E derivative). Compound 7d was 0.163 ± 0.146, 8a, 0.635 ± 0.020, thus showing a very weak ORAC for the lipoate and a weak, but significant, effect for the ferulic acid derivative. The lack of activity of the lipoate in the non-cellular ORAC assay is not surprising as its anti-oxidant effects are mainly related to cellular or mitochondria related processes.
Compounds were assessed for antioxidant capacity using the standard ORAC assay performed as described previously.

Data set [4] deals with HT-22 murine hippocampal cell line. It is filed as cell-based. The settings on record: 24 h, no glutamate; for toxicity / reduction in cell viability, compound alone: 1–25 µM. The protocol: as §3, §4
This test was performed as reported before. Briefly, HT-22 cells were seeded in 96-well plates at a density of 5 × 10^3 per well and cultured for 24 h. […] Absorbance at 560 nm was determined on the next day using a multiwell plate photometer (Spectra Fluor Plus, Tecan, Crailsheim, Germany). The results of these cell viability assays were expressed as percentages relative to untreated control cells. […]

The mark [5] stands for this setting: inhibitor added 30 min before, read-out: BChE IC50.
Where [6] appears, read: read-out: BChE pIC50 ± SEM (converted).

Read-outs that look alike come from different tables or passages of the source. Where only a bound is given, the exact number is not on record here.

T1 sequence (P06276 29-602): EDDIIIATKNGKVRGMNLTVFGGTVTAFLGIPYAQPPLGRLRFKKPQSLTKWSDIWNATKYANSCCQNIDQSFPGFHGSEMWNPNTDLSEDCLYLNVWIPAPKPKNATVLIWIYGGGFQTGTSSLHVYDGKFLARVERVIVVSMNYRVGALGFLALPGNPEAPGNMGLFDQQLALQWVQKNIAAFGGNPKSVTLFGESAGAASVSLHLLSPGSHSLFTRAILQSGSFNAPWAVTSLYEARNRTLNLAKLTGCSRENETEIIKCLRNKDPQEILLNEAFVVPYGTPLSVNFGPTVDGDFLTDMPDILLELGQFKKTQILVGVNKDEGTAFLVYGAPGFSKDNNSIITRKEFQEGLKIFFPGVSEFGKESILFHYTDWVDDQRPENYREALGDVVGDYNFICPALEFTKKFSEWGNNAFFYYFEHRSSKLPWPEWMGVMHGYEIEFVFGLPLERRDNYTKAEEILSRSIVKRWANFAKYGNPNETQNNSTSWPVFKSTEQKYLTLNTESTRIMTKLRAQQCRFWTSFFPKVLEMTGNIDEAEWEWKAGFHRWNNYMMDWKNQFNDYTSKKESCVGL
T2 sequence (O42275 24-633): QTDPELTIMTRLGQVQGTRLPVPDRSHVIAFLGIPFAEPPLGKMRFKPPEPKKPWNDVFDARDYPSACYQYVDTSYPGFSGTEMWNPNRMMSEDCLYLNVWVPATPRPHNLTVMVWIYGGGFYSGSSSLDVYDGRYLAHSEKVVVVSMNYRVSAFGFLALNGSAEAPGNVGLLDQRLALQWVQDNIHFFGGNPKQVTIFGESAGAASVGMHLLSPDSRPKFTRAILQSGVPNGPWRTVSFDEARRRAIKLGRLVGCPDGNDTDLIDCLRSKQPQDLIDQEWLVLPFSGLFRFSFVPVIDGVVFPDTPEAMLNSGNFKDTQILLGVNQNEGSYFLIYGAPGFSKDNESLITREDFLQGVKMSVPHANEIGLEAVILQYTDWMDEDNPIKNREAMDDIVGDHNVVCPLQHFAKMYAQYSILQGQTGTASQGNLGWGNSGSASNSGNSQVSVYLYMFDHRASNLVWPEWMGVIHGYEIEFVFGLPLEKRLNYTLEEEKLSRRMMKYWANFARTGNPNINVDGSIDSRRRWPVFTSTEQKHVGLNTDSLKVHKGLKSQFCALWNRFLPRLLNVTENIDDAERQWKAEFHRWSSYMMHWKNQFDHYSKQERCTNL

On to `O=C(NCc1ccccc1)O[C@H]1CO[C@H]2[C@@H]1OC[C@H]2O` [Compound 6a, Isosorbide-2-benzylcarbamate], for which, in data set [1], the Selectivity is 1.45. For the same molecule, the IC50 in data set [1] (setting [5]) was found to be 25.8 µM; against AChE from electric eel (n = 3), 37.5 ± 7.4 µM.

For `O=C(Nc1ccccc1)O[C@H]1CO[C@H]2[C@@H]1OC[C@H]2O` [Compound 6b, Isosorbide-2-phenylcarbamate], the IC50 in data set [1] (setting [5]) is more than 100 µM. The inhibition at 100 µM at AChE from electric eel (100 μM, n = 3) came out at 25.3%.

Turning to `CCCCNC(=O)O[C@H]1CO[C@H]2[C@@H]1OC[C@H]2O` [Compound 6c, Isosorbide-2-butylcarbamate], the IC50 is 28 µM in data set [1] (setting [5]) and 28.2 µM in data set [1] (setting [6]). In addition, the inhibition at 100 µM at AChE from electric eel stood at 30%.

For `CCNC(=O)O[C@H]1CO[C@H]2[C@@H]1OC[C@H]2O` [Compound 6d, Isosorbide-2-ethylcarbamate], the figures for the IC50 in data set [1] (setting [5]) and in data set [1] (setting [6]) were 46.9 µM and 46.8 µM, respectively. Moreover, at AChE from electric eel (100 μM, n = 3), the inhibition at 100 µM turned out to be 22%.

In turn, `O=C(CCCCC1CCSS1)O[C@@H]1CO[C@H]2[C@@H]1OC[C@@H]2OC(=O)Nc1ccccc1` (stereo partly drawn) [Compound 7b, Isosorbide-2-phenylcarbamate-5-lipoic acid ester] returned a Selectivity in data set [1] of more than 7.5. Also, the IC50 is 13.3 µM in data set [1] (setting [5]) and 13.2 µM in data set [1] (setting [6]). The inhibition at 100 µM at AChE from electric eel (100 μM, n = 3) was found to be 18.8%. Besides, in data set [2] (1–25 µM), the “neuroprotective effect” value is given as “neuroprotective effect could not be observed”.

Consider `CCCCNC(=O)O[C@H]1CO[C@H]2[C@@H]1OC[C@H]2OC(=O)CCCCC1CCSS1` (stereo partly drawn) [Compound 7c, Isosorbide-2-butylcarbamate-5-lipoic acid ester], for which the IC50 in data set [1] (setting [5]) was 0.17 µM; in data set [1] (setting [6]), 0.209 µM. Further, the inhibition at 100 µM on AChE from electric eel (100 μM, n = 3) amounted to 68.7%. In data set [2] (1–25 µM), the “neuroprotective effect” value is listed as “showed some effects”.

Regarding `CCNC(=O)O[C@H]1CO[C@H]2[C@@H]1OC[C@H]2OC(=O)CCCCC1CCSS1` (stereo partly drawn) [Compound 7d, Isosorbide-2-ethylcarbamate-5-lipoic acid ester], in data set [3], the “ORAC antioxidant effect” value is on record as “not active” and the ORAC antioxidant capacity was determined as 0.163 ± 0.146 Trolox Equivalent. In addition, the IC50 in data set [1] (setting [5]) was found to be 5.71 µM. For the same molecule, the IC50 in data set [1] (setting [6]) was 5.75 µM. Further, on AChE from electric eel (100 μM, n = 3), the inhibition at 100 µM amounted to 84.1%. Besides, in data set [2] (1–25 µM), the “neuroprotective effect” value was “showed some effects”.

Take `COc1cc(/C=C/C(=O)O[C@@H]2CO[C@H]3[C@@H]2OC[C@@H]3OC(=O)NCc2ccccc2)ccc1O` [Compound 8a, Isosorbide-2-benzylcarbanate-5-ferulate]: in data set [3], the ORAC antioxidant capacity turned out to be 0.635 ± 0.020 Trolox Equivalent. In addition, the Selectivity in data set [1] is reported as more than 55. In addition, the IC50 in data set [1] (setting [5]) was 1.82 µM; in data set [1] (setting [6]) it was 1.62 µM. Besides, the inhibition at 100 µM on AChE from electric eel (100 μM, n = 3) was 25.2%.

In turn, `COc1cc(/C=C/C(=O)O[C@@H]2CO[C@H]3[C@@H]2OC[C@@H]3OC(=O)Nc2ccccc2)ccc1O` [Compound 8b, Isosorbide-2-phenylcarbanate-5-ferulate] displayed a Selectivity in data set [1] of 0.92. The IC50 was 29.2 µM in data set [1] (setting [5]), 26.3 µM in data set [1] (setting [6]) and 27.1 ± 11.3 µM against AChE from electric eel (n = 3).

Regarding `CCCCNC(=O)O[C@H]1CO[C@H]2[C@@H]1OC[C@H]2OC(=O)/C=C/c1ccc(O)c(OC)c1` [Compound 8c, Isosorbide-2-butylcarbanate-5-ferulate], the IC50 in data set [1] (setting [5]) was 0.43 µM; in data set [1] (setting [6]), 0.389 µM.

As for `CCNC(=O)O[C@H]1CO[C@H]2[C@@H]1OC[C@H]2OC(=O)/C=C/c1ccc(O)c(OC)c1` [Compound 8d, Isosorbide-2-ethylcarbanate-5-ferulate], the IC50 is 95 µM in data set [1] (setting [5]) and 95.5 µM in data set [1] (setting [6]). The “reduction in cell viability, compound alone” value in data set [4] (25 µM) is recorded as “significant”.

On to `COc1cc(/C=C/C(=O)O)ccc1O` [Ferulic acid, ferulic acid, reference compound], for which, in data set [4], the “toxicity / reduction in cell viability, compound alone” value is on record as “non-toxic”. For the same molecule, in data set [2] (1–25 µM), the “neuroprotective effect” value is “not active”.

Consider `O=C(O)CCCCC1CCSS1` (stereo not drawn) [Lipoic acid, lipoic acid, reference compound], for which the “toxicity / reduction in cell viability, compound alone” value in data set [4] is given as “non-toxic”. Further, the “neuroprotective effect” value in data set [2] (compound 5 µM) is “not effective”.

Regarding `O=c1c(O)c(-c2ccc(O)c(O)c2)oc2cc(O)cc(O)c12` [Quercetin, quercetin, reference compound], the viability at 25 µM in data set [2] (Mus musculus, HT-22, compound 25 µM, read-out: cell viability after rescue from glutamate) was approximately 80%.
